Measured values from patent US20130165440A1, “JAK1 Inhibitors” (EXELIXIS, INC., priority 2010, published 2013).

Each molecule was assayed against T1, recombinant JAK1 enzyme (Homo sapiens, UniProt P23458) (assay: JAK1 Kinase Assay (luciferase-luciferin-coupled chemiluminescence, ATP consumption)). Settings: 8 nM JAK1 (V866-K1155), 30 μM IRS-1 peptide (Y608), 2 μM ATP, 2 hours ambient temperature, KinaseGlo; read-out: JAK1 IRS-1tide Chemilum (IC50).
T1 construct: 8 nM of recombinant JAK1 enzyme (Insect expressed: V866-K1155); host or cells: insect cells
T1 sequence (P23458 865-1154 limits assumed): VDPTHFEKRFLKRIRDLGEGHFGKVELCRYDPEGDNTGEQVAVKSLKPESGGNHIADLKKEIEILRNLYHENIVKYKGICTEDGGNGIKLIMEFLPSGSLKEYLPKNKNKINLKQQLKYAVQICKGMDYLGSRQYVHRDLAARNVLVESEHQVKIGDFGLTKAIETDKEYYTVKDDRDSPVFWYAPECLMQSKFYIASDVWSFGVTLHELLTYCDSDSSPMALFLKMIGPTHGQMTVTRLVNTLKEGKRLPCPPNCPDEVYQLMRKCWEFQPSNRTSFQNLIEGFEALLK
Type: biochemical
Description: JAK1 Kinase Assay Used to Test Compounds
JAK1 Kinase activity was measured as the percent of ATP consumed following the kinase reaction using luciferase-luciferin-coupled chemiluminescence. The reaction was conducted in white medium binding 384-well microtiter plates. The kinase reaction were initiated by combining test compounds, 8 nM of recombinant JAK1 enzyme (Insect expressed: V866-K1155), 30 μM of IRS-1 peptide (Y608) and 2 μM ATP in buffer containing 20 mM Hepes (pH 7.5), 10 mM MgCl2, 0.01% Brij, 5% glycerol and 1 mM DTT in a 20 μL volume. The reaction mixture was incubated at ambient temperature for 2 hours. Following the kinase reaction, a 20 μL aliquot of KinaseGlo was added to stop the reaction and measure remaining ATP via detection of chemiluminescence using the Envison reader. Total ATP consumption was limited to 25-60%.
An IC50 of 2000 to 30000 nM was found for `CNc1nnc(-c2ccc(-c3nnc(Nc4cc(C(F)(F)F)cc(C(F)(F)F)c4)c4ccccc34)cc2)s1` [Compound 1, N-[3,5-bis(trifluoromethyl)phenyl]-4-{4-[5-(methylamino)-1,3,4-thiadiazol-2-yl]phenyl}phthalazin-1-amine] in this work. An IC50 of 500 to 1000 nM was found for `COC(=O)c1ccc(-c2nnc(Nc3cccc(C(C)(C)C)c3)c3ccccc23)cc1` [Compound 4, methyl 4-(4-{[3-(1,1-dimethylethyl)phenyl]amino}phthalazin-1-yl)benzoate] in this work. An IC50 of at most 150 nM was found for `O=c1[nH]ccn1-c1ccc(-c2nnc(Nc3cc(C(F)(F)F)cc(C(F)(F)F)c3)c3ccccc23)cc1` [Compound 5, 1-[4-(4-{[3,5-bis(trifluoromethyl)phenyl]amino}phthalazin-1-yl)phenyl]-1,3-dihydro-2H-imidazol-2-one] in this work. An IC50 of 150 to 500 nM was found for `COC(=O)c1ccc(-c2nnc(Nc3cc(NCCCN(C)C)cc(C(F)(F)F)c3)c3ccccc23)cc1` [Compound 8, methyl 4-(4-{[3-{[3-(dimethylamino)propyl]amino}-5-(trifluoromethyl)phenyl]amino}phthalazin-1-yl)benzoate] in this work. An IC50 of 1000 to 2000 nM was found for `NC(=O)c1ccc(-c2nnc(Nc3cc(C(F)(F)F)cc(C(F)(F)F)c3)c3ccccc23)cc1` [Compound 9, 4-(4-{[3,5-bis(trifluoromethyl)phenyl]amino}phthalazin-1-yl)benzamide] in this work. An IC50 of 150 to 500 nM was found for `COC(=O)c1ccc(-c2nnc(Nc3cc(OCCN(C)C)cc(C(F)(F)F)c3)c3ccccc23)cc1` [Compound 10, methyl 4-(4-{[3-{[2-(dimethylamino)ethyl]oxy}-5-(trifluoromethyl)phenyl]amino}phthalazin-1-yl)benzoate] in this work. An IC50 of 2000 to 30000 nM was found for `CC(=O)c1ccc(-c2nnc(Nc3cc(C(F)(F)F)cc(C(F)(F)F)c3)c3ccccc23)s1` [Compound 12, 1-[5-(4-{[3,5-bis(trifluoromethyl)phenyl]amino}phthalazin-1-yl)-2-thienyl]ethanone] in this work. An IC50 of 500 to 1000 nM was found for `COC(=O)c1ccc(-c2nnc(Nc3cccc(C(F)(F)F)c3)c3cccnc23)cc1` [Compound 13] in this work. An IC50 of at most 150 nM was found for `COC(=O)c1ccc(-c2nnc(Nc3cc(Cl)cc(C(F)(F)F)c3)c3ccccc23)cc1` [Compound 14, methyl 4-(4-{[3-chloro-5-(trifluoromethyl)phenyl]amino}phthalazin-1-yl)benzoate] in this work. An IC50 of 2000 to 30000 nM was found for `COC(=O)c1ccc(-c2nnc(Nc3cc(C(=O)OC)cc(C(F)(F)F)c3)c3ccccc23)cc1` [Compound 15, methyl 3-[(4-{4-[(methyloxy)carbonyl]phenyl}phthalazin-1-yl)amino]-5-(trifluoromethyl)benzoate] in this work. An IC50 of 150 to 500 nM was found for `COC(=O)c1ccc(-c2nnc(Nc3cccc(Cl)c3)c3ccccc23)cc1` [Compound 16, methyl 4-{4-[(3-chlorophenyl)amino]phthalazin-1-yl}benzoate] in this work. An IC50 of 2000 to 30000 nM was found for `COC(=O)c1ccc(-c2nnc(Nc3cc(C(F)(F)F)cc(C(F)(F)F)c3)c3ccccc23)s1` [Compound 17, methyl 5-(4-{[3,5-bis(trifluoromethyl)phenyl]amino}phthalazin-1-yl)thiophene-2-carboxylate] in this work. An IC50 of 2000 to 30000 nM was found for `O=Cc1ccc(-c2nnc(Nc3cc(C(F)(F)F)cc(C(F)(F)F)c3)c3ccccc23)cc1` [Compound 18, 4-(4-{[3,5-bis(trifluoromethyl)phenyl]amino}phthalazin-1-yl)benzaldehyde] in this work. An IC50 of at most 150 nM was found for `CCc1cc(Nc2nnc(-c3ccc(C(=O)OC)cc3)c3ccccc23)cc(C(F)(F)F)c1` [Compound 19, methyl 4-(4-{[3-ethyl-5-(trifluoromethyl)phenyl]amino}phthalazin-1-yl)benzoate] in this work. An IC50 of 1000 to 2000 nM was found for `COC(=O)c1ccc(-c2nnc(Nc3cc(N4CCN(C)CC4)cc(C(F)(F)F)c3)c3ccccc23)cc1` [Compound 20, methyl 4-(4-{[3-(4-methylpiperazin-1-yl)-5-(trifluoromethyl)phenyl]amino}phthalazin-1-yl)benzoate] in this work. An IC50 of 150 to 500 nM was found for `CCc1cccc(Nc2nnc(-c3ccc(C(=O)OC)cc3)c3ccccc23)c1` [Compound 21, methyl 4-{4-[(3-ethylphenyl)amino]phthalazin-1-yl}benzoate] in this work. An IC50 of at most 150 nM was found for `COC(=O)c1ccc(-c2nnc(Nc3cc(CCCN(C)C)cc(C(F)(F)F)c3)c3ccccc23)cc1` [Compound 22, methyl 4-[4-({3-[3-(dimethylamino)propyl]-5-(trifluoromethyl)phenyl}amino)phthalazin-1-yl]benzoate] in this work. An IC50 of at most 150 nM was found for `O=C1NCCN1c1ccc(-c2nnc(Nc3cc(C(F)(F)F)cc(C(F)(F)F)c3)c3ccccc23)cc1` [Compound 23, 1-[4-(4-{[3,5-bis(trifluoromethyl)phenyl]amino}phthalazin-1-yl)phenyl]imidazolidin-2-one] in this work. An IC50 of 500 to 1000 nM was found for `COC(=O)c1ccc(-c2nnc(Nc3ccc(Cl)c(C(F)(F)F)c3)c3ccccc23)cc1` [Compound 24, methyl 4-(4-{[4-chloro-3-(trifluoromethyl)phenyl]amino}phthalazin-1-yl)benzoate] in this work. An IC50 of 1000 to 2000 nM was found for `COC(=O)c1ccc(-c2nnc(Nc3ccc(Cl)cc3)c3ccccc23)cc1` [Compound 26] in this work. An IC50 of 2000 to 30000 nM was found for `O=C1OCc2cc(-c3nnc(Nc4cc(C(F)(F)F)cc(C(F)(F)F)c4)c4ccccc34)ccc21` [Compound 27, 5-(4-{[3,5-bis(trifluoromethyl)phenyl]amino}phthalazin-1-yl)-2-benzofuran-1(3H)-one] in this work. An IC50 of 500 to 1000 nM was found for `CC(=O)Nc1ccc(-c2nnc(Nc3cc(C(F)(F)F)cc(C(F)(F)F)c3)c3ccccc23)cc1` [Compound 28, N-[4-(4-{[3,5-bis(trifluoromethyl)phenyl]amino}phthalazin-1-yl)phenyl]acetamide] in this work. An IC50 of 150 to 500 nM was found for `COC(=O)c1ccc(-c2nnc(Nc3cccc(C(F)(F)F)c3)c3cnccc23)cc1` [Compound 29, methyl 4-(4-{[3-(trifluoromethyl)phenyl]amino}pyrido[3,4-d]pyridazin-1-yl)benzoate] in this work. An IC50 of 500 to 1000 nM was found for `COC(=O)c1ccc(-c2nnc(Nc3cc(CN(C)C)cc(C(F)(F)F)c3)c3ccccc23)cc1` [Compound 30, methyl 4-[4-({3-[(dimethylamino)methyl]-5-(trifluoromethyl)phenyl}amino)phthalazin-1-yl]benzoate] in this work. An IC50 of 500 to 1000 nM was found for `COC(=O)c1ccc(-c2nnc(Nc3cc(OC)cc(C(F)(F)F)c3)c3ccccc23)cc1` [Compound 32, methyl 4-(4-{[3-(methyloxy)-5-(trifluoromethyl)phenyl]amino}phthalazin-1-yl)benzoate] in this work. An IC50 of at most 150 nM was found for `FC(F)(F)c1cc(Nc2nnc(-c3ccc4cn[nH]c4c3)c3ccccc23)cc(C(F)(F)F)c1` [Compound 33, N-[3,5-bis(trifluoromethyl)phenyl]-4-(1H-indazol-6-yl)phthalazin-1-amine] in this work. An IC50 of 500 to 1000 nM was found for `COC(=O)c1ccc(-c2nnc(Nc3ccc(OC)c(C(F)(F)F)c3)c3ccccc23)cc1` [Compound 34, methyl 4-(4-{[4-(methyloxy)-3-(trifluoromethyl)phenyl]amino}phthalazin-1-yl)benzoate] in this work. An IC50 of 150 to 500 nM was found for `COC(=O)c1ccc(-c2nnc(Nc3cc(F)cc(C(F)(F)F)c3)c3ccccc23)cc1` [Compound 35, methyl 4-(4-{[3-fluoro-5-(trifluoromethyl)phenyl]amino}phthalazin-1-yl)benzoate] in this work. An IC50 of 150 to 500 nM was found for `COC(=O)c1ccc(-c2nnc(Nc3cc(NCCN(C)C)cc(C(F)(F)F)c3)c3ccccc23)cc1` [Compound 36, methyl 4-(4-{[3-{[2-(dimethylamino)ethyl]amino}-5-(trifluoromethyl)phenyl]amino}phthalazin-1-yl)benzoate] in this work. An IC50 of at most 150 nM was found for `Nc1n[nH]c2cc(-c3nnc(Nc4cc(C(F)(F)F)cc(C(F)(F)F)c4)c4ccccc34)ccc12` [Compound 38, 4-(3-amino-1H-indazol-6-yl)-N-[3,5-bis(trifluoromethyl)phenyl]phthalazin-1-amine] in this work. An IC50 of 2000 to 30000 nM was found for `COC(=O)c1ccc(-c2nnc(Nc3cccc(C(F)(F)F)c3)c3ncccc23)cc1` [Compound 39, methyl 4-(8-{[3-(trifluoromethyl)phenyl]amino}pyrido[2,3-d]pyridazin-5-yl)benzoate] in this work. An IC50 of 2000 to 30000 nM was found for `O=C(O)c1ccc(-c2nnc(Nc3cc(C(F)(F)F)cc(C(F)(F)F)c3)c3ccccc23)cc1` [Compound 40, 4-(4-{[3,5-bis(trifluoromethyl)phenyl]amino}phthalazin-1-yl)benzoic acid] in this work. An IC50 of 150 to 500 nM was found for `COC(=O)c1ccc(-c2nnc(Nc3cccc(OC(F)(F)F)c3)c3ccccc23)cc1` [Compound 43, methyl 4-[4-({3-[(trifluoromethyl)oxy]phenyl}amino)phthalazin-1-yl]benzoate] in this work. An IC50 of 150 to 500 nM was found for `COC(=O)c1ccc(-c2nnc(Nc3cc(Br)cc(C(F)(F)F)c3)c3ccccc23)cc1` [Compound 44, methyl 4(4-{[3-bromo-5-(trifluoromethyl)phenyl]amino}phthalazin-1-yl)benzoate] in this work. An IC50 of 1000 to 2000 nM was found for `FC(F)(F)c1cc(Nc2nnc(-c3ccc4nn[nH]c4c3)c3ccccc23)cc(C(F)(F)F)c1` [Compound 45, 4-(1H-1,2,3-benzotriazol-6-yl)-N-[3,5-bis(trifluoromethyl)phenyl]phthalazin-1-amine] in this work. An IC50 of 500 to 1000 nM was found for `COC(=O)c1ccc(-c2nnc(Nc3cccc(C)c3)c3ccccc23)cc1` [Compound 47] in this work. An IC50 of 2000 to 30000 nM was found for `O=C1CCCN1c1ccc(-c2nnc(Nc3cc(C(F)(F)F)cc(C(F)(F)F)c3)c3ccccc23)cc1` [Compound 48, 1-[4-(4-{[3,5-bis(trifluoromethyl)phenyl]amino}phthalazin-1-yl)phenyl]pyrrolidin-2-one] in this work.
